Experimental data: paper PMC6028563, “Probing Substituents in the 1- and 3-Position: Tetrahydropyrazino-Annelated Water-Soluble Xanthine Derivatives as Multi-Target Drugs With Potent Adenosine Receptor Antagonistic Activity” (Frontiers in Chemistry, 2018)
Converted amounts (≈) assume the structure as drawn. Where two headings read alike, the source gives them in different places.

Tests used:
[1] = biological target: T1, rat A2A AR (Rattus norvegicus, UniProt P30543); test: Radioligand binding assay at rat A2A AR (rat brain striatum) vs. [^3H]MSX-2; settings: rat (r); for Ki: rat brain striatum, n = 3, read-out: Ki ± SEM, A2A vs. [^3H]MSX-2; for % inhibition of radioligand binding at indicated concentration, A2A vs. [^3H]MSX-2: at 1,000 nM
T1 construct: A2A ARs of rat brain striatal membrane preparations; from tissue; host or cells: rat brain striatum membranes
In short: (§1)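 Rat A1 affinity was measured on cortical membranes and rat A2A on striatal membranes from rat brain. Human A1, A2A, A2B and A3 subtypes were tested on membranes of CHO cells recombinantly expressing each receptor. No functional assays were run, as these xanthine-type compounds act only as blockers.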

[2] = biological target: T2, human A2A AR (Homo sapiens, UniProt P29274); test: Radioligand binding assay at human A2A AR vs. [^3H]MSX-2; settings: for Ki: CHO cell membranes, n = 3, read-out: Ki ± SEM, A2A vs. [^3H]MSX-2
T2 construct: expressed in transfected cells; host or cells: CHO cells
Procedure: Membrane preparations and radioligand binding assays at rat A1 (rat brain cortex) and rat A2A ARs (rat brain striatum) were performed as previously described (Ozola et al., [2003]; Alnouri et al., [2015]). For assays at human A1, A2A, A2B, and A3 ARs, CHO cell membranes expressing one of the human AR subtypes were used as previously reported (Klotz et al., [1998]; Alnouri et al., [2015]; De Filippo et al., [2016]).
The synthesized tetrahydropyrazino[2,1-f ]purinediones 13–20 were evaluated in radioligand binding assays for their affinity to A1 ARs of rat brain cortical membrane and to A2A ARs of rat brain striatal membrane preparations. Selected compounds were further investigated for their affinity to human A1 and A2A ARs recombinantly expressed in Chinese hamster ovary (CHO) cells. All compounds were additionally investigated for their affinity to human A2B and A3 ARs recombinantly expressed in CHO cells to determine their AR subtype selectivity. […] It is well known that all xanthine derivatives lacking a ribose moiety, including tricyclic compounds, can only block ARs, but never act as AR agonists; therefore, additional functional studies were not required. […] Potent MAO-B inhibitors were additionally investigated for inhibition of human MAO-A to assess their selectivity. Results are presented in Tables 1–6, and data of standard ligands are included for comparison.

[3] = biological target: T3, rat A1 AR (Rattus norvegicus, UniProt P25099); test: Radioligand binding assay at rat A1 AR (rat brain cortex) vs. [^3H]CCPA; settings: rat (r); rat brain cortex; n = 3
T3 construct: A1 ARs of rat brain cortical membrane; from tissue; host or cells: rat brain cortex membranes
T3 sequence (P25099 1-326): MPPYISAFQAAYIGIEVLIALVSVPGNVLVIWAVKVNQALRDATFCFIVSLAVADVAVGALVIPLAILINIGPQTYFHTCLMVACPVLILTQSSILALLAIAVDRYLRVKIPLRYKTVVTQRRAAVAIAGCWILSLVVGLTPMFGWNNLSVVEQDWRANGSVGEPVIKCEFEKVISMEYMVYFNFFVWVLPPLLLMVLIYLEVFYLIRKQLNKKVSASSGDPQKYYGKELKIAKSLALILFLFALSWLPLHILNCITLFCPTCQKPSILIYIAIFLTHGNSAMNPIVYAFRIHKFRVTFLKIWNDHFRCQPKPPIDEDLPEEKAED
In short: as §1

[4] = biological target: T4, recombinant human MAO-B (Homo sapiens, UniProt P27338); test: Monoamine oxidase assay (Amplex Red), MAO-B; format: biochemical; settings: for IC50: n = 3, read-out: IC50 ± SEM, Human MAO-B; for inhibition at 10 µM: at 10,000 nM (10 μM), read-out: % inhibition at indicated concentration, Human MAO-B
T4 construct: purchased Sigma-Aldrich M7441; host or cells: baculovirus-infected insect cells
T4 sequence (P27338 1-520): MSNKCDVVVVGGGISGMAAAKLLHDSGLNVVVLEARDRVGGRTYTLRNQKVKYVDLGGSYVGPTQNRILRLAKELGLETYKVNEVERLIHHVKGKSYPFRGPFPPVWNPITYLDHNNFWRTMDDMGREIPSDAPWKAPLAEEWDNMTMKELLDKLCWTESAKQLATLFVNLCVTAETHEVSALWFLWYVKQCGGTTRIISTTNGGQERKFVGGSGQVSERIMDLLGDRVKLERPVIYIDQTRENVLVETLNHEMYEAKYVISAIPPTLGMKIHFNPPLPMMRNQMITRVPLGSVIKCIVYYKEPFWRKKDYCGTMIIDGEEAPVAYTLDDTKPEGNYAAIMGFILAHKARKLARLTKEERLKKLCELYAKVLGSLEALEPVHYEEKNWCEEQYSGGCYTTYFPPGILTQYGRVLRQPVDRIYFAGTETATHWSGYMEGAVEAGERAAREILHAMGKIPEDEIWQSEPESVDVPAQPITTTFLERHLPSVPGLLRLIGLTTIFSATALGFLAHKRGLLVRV
In short: (§2)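 Recombinant human MAO-A and MAO-B, expressed in baculovirus-infected insect cells, were assayed by Amplex Red fluorometric detection. Rat MAO-B inhibition used mitochondria-enriched fractions from male Sprague Dawley rat liver.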

[5] = biological target: T5, recombinant human MAO-A (Homo sapiens, UniProt P21397); test: Monoamine oxidase assay (Amplex Red), MAO-A; format: biochemical; settings: for inhibition at 10 µM: at 10,000 nM, read-out: % inhibition at indicated concentration, Human MAO-A; for IC50: n = 3, read-out: IC50 ± SEM, Human MAO-A
T5 construct: purchased Sigma-Aldrich M7316; host or cells: baculovirus-infected insect cells
T5 sequence (P21397 1-527): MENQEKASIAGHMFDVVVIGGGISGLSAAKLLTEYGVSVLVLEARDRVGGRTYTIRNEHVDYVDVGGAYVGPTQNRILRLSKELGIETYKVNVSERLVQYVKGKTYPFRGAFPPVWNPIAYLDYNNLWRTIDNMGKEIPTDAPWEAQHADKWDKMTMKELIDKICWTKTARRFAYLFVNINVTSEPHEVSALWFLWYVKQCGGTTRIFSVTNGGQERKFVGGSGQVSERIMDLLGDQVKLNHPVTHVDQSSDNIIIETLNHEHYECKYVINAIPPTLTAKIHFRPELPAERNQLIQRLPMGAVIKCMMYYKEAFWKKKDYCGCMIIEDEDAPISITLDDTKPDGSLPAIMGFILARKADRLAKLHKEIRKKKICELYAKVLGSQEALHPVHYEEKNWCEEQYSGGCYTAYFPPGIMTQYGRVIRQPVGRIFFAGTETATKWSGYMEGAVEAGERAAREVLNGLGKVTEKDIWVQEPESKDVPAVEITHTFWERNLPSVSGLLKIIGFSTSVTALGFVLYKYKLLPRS
In short: as §2

[6] = biological target: T6, human A1 AR (Homo sapiens, UniProt P30542); test: Radioligand binding assay at human A1 AR vs. [^3H]CCPA; settings: human (h); CHO cell membranes; n = 3
T6 construct: expressed in transfected cells; host or cells: CHO cells
T6 sequence (P30542 1-326): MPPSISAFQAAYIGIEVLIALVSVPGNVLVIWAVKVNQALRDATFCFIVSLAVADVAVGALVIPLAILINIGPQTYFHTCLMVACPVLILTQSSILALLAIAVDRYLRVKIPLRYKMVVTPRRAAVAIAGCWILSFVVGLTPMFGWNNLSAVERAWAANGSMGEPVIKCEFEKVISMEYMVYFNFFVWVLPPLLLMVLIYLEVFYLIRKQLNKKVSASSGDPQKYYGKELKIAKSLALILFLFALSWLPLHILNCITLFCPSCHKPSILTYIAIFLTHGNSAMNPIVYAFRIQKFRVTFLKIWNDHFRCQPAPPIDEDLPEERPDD
In short: as §1

[7] = biological target: T7, human A3 AR (Homo sapiens, UniProt P0DMS8); test: Radioligand binding assay at human A3 AR vs. [^3H]PSB-11; settings: for Ki: CHO cell membranes, n = 2 (n = 3 where marked a), read-out: Ki ± SEM, A3 vs. [^3H]PSB-11
T7 construct: expressed in transfected cells; host or cells: CHO cells
T7 sequence (P0DMS8 1-318): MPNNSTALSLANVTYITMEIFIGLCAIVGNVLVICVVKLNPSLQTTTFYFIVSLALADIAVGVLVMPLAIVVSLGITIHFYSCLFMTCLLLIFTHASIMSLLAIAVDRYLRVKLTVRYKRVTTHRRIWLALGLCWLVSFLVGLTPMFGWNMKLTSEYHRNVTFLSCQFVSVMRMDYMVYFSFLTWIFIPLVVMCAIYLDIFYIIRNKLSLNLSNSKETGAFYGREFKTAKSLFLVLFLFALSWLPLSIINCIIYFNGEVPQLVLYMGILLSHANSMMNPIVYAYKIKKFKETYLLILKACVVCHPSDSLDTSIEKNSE
In short: as §1

[8] = biological target: T8, human A2B AR (Homo sapiens, UniProt P29275); test: Radioligand binding assay at human A2B AR vs. [^3H]PSB-603; settings: for Ki: CHO cell membranes, n = 2 (n = 3 where marked a), read-out: Ki ± SEM, A2B vs. [^3H]PSB-603; for inhibition at 1 µM: at 1,000 nM
T8 construct: expressed in transfected cells; host or cells: CHO cells
T8 sequence (P29275 1-332): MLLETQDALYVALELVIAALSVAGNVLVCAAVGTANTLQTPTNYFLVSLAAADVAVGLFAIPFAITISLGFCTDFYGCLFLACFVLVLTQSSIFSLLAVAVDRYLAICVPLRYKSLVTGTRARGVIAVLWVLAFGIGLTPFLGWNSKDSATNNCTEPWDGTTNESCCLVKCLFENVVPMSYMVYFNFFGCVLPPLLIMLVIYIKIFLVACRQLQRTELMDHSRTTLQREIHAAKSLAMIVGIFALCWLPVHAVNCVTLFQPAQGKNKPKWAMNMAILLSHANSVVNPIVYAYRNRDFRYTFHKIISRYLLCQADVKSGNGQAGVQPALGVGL
In short: as §1

[9] = Thermodynamic solubility measurements; format: physicochemical; settings: thermodynamic from solid, thermodynamic solubility
Source text: This is expected to facilitate dissolution in the stomach. Depending on the substitution pattern they may also be well soluble at higher pH values (Brunschweiger et al., [2014]). In the present study we measured thermodynamic solubility of only very few compounds exemplarily (14a-e, 14g, 15f,g) and confirmed their high solubility at pH 1 (see Table S1 in Supplementary Material). Most of these compounds were still soluble at pH 7.4. The best soluble derivative was the 3-ethyl-1-methyl-8-m-fluorobenzyl derivative 14g with solubilities of >1.5 g/L (4.2 mM) at pH 1, 50 mg/L (0.14 mM) at pH 4, and 40 mg/L ([…]) at pH 7.4.
Table S1. Solubility of selected compounds at three different pH values (in mg/mL).a
Compound pH 1 pH 4 pH 7.4
adetermined by thermodynamic solubility measurements.

[10] = read-out: % inhibition of radioligand binding at indicated concentration, A2B vs. [^3H]PSB-603

T1 sequence (P30543 whole entry): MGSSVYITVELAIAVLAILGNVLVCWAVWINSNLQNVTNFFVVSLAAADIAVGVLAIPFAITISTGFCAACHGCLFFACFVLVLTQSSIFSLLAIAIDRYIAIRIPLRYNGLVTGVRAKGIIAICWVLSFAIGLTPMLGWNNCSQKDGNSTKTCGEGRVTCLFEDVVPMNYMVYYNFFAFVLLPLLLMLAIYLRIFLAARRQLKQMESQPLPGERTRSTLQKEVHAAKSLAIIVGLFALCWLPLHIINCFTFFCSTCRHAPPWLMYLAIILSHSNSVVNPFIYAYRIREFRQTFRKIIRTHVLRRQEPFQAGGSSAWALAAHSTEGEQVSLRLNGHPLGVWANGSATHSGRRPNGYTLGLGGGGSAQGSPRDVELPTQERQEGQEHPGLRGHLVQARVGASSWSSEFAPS
T2 sequence (P29274 whole entry): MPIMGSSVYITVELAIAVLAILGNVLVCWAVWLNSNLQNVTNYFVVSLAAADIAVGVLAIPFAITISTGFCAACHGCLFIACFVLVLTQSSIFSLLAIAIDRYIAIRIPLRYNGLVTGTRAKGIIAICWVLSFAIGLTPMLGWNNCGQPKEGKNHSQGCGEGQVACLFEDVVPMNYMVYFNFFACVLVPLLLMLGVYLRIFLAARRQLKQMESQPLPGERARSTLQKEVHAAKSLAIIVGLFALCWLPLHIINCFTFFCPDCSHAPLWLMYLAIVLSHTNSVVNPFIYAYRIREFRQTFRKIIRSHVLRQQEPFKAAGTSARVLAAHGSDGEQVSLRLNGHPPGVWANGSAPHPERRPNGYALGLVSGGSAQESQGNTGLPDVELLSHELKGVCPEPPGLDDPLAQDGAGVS

SMILES | Ki [1] | Ki [2] | Ki [3] | IC50 [4] | inhibition at 10 µM [5] | IC50 [5] | Ki [6] | Ki [7] | inhibition at 10 µM ([8]; at 10,000 nM, read-out: % inhibition of radioligand binding at indicated concentration, A2B vs. [^3H]PSB-603) | % inhibition of radioligand binding at indicated concentration, A2A vs. [^3H]MSX-2 [1] | % inhibition of radioligand binding at indicated concentration, A2A vs. [^3H]MSX-2 ([2]; at 1,000 nM) | inhibition at 10 µM [4] | Ki [8] | inhibition at 1 µM [8, 10] | solubility ([9]; aqueous buffer, pH 4, read-out: Solubility, pH 4) | solubility ([9]; aqueous buffer, pH 7.4, read-out: Solubility, pH 7.4) | solubility ([9]; simulated gastric fluid, pH 1, read-out: Solubility, pH 1) | inhibition at 10 µM ([7]; at 10,000 nM, read-out: % inhibition of radioligand binding at indicated concentration, A3 vs. [^3H]PSB-11)
CCCn1c(=O)c2c(nc3n2CCN(Cc2ccc(Cl)c(Cl)c2)C3)n(C)c1=O [Compound 18] | 675 ± 104 nM | 2110 nM | 152 ± 12 nM | 2910 nM | 9% | > 10000 nM | 475 ± 47 nM | 12700 nM | – | – | – | – | – | – | – | – | – | –
CCn1c(=O)c2c(nc3n2CCN(Cc2cccc(Cl)c2)C3)n(C)c1=O [Compound 14i, 8-(3-chlorobenzyl)-3-ethyl-1-methyl-6,7,8,9-tetrahydropyrazino[2,1-f]purine-2,4(1H,3H)-dione] | > 1000 nM | – | 53 ± 5.8 nM | ≤ 10000 nM | 20% | > 10000 nM | 121 ± 45 nM | – | 36% | 33% | 8% | > 50% | – | – | – | – | – | –
CCn1c(=O)c2c(nc3n2CCN(Cc2ccccc2C(F)(F)F)C3)n(CC)c1=O [Compound 15f, 1,3-diethyl-8-(2-(trifluoromethyl)benzyl)-6,7,8,9-tetrahydropyrazino[2,1-f]purine-2,4(1H,3H)-dione] | > 1000 nM | – | 51.4 ± 14.7 nM | > 10000 nM | – | – | 129 ± 9 nM | 4060 nM | – | 32% | – | 41% | > 1000 nM | 2% | 0.9 µg/mL (≈ 2.14 µM) | 0.7 µg/mL (≈ 1.66 µM) | 300 µg/mL (≈ 712 µM) | –
CCn1c(=O)c2c(nc3n2CCN(Cc2cccc(C(F)(F)F)c2F)C3)n(CC)c1=O [Compound 15h, 1,3-diethyl-8-(2-fluoro-3-(trifluoromethyl)benzyl)-6,7,8,9-tetrahydropyrazino[2,1-f]purine-2,4(1H,3H)-dione] | 895 ± 210 nM | 663 ± 54 nM | 172 ± 28 nM | > 10000 nM | – | – | 189 ± 29 nM | > 10000 nM | – | – | – | 32% | > 1000 nM | 30% | – | – | – | 29%
